In ChEMBL document CHEMBL1201862, “PubChem BioAssay data set” (2004):
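48-hour exposure; five concentrations; linearly interpolated endpoints. GI50: concentration for 50% inhibition of growth.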 Activity calls are given as the source filed them. Cut-off read from the data, not from the text of the source: active = GI50 up to about 1.1 µM and inactive = higher.

Tests used:
Assay in all cases: growth of human tumour cells (NCI), 48 h
KM12 = tested on: KM12
NCI-H522 = tested on: NCI-H522
UACC-62 = tested on: UACC-62
SW-620 = tested on: SW-620
HT-29 = tested on: HT-29
LOX IMVI = tested on: LOX IMVI
HL-60 = tested on: HL-60
COLO 205 = tested on: COLO 205
HCT-116 = tested on: HCT-116
OVCAR-5 = tested on: OVCAR-5
SK-MEL-28 = tested on: SK-MEL-28
A549 = tested on: A549
OVCAR-8 = tested on: OVCAR-8
HOP-62 = tested on: HOP-62
SK-MEL-2 = tested on: SK-MEL-2
U-251 = tested on: U-251
IGROV-1 = tested on: IGROV-1

Measured: GI50

O=C(Nc1cccc(Cc2cccc(NC(=O)c3ccccc3)c2)c1)c1ccccc1
inactive: KM12 > 100 µM | NCI-H522 25.2 µM | UACC-62 23.8 µM | SW-620 > 100 µM | HT-29 > 100 µM | LOX IMVI > 100 µM | HL-60 > 100 µM | COLO 205 > 100 µM | HCT-116 50.6 µM | OVCAR-5 > 100 µM | SK-MEL-28 41.7 µM | A549 24.8 µM | OVCAR-8 19.5 µM | HOP-62 22 µM | SK-MEL-2 52.4 µM | U-251 20.1 µM | IGROV-1 47.8 µM

O=S(=O)(O)C(O)/C=C/c1ccccc1 (stereo not drawn)
inactive: KM12 > 100 µM | NCI-H522 > 100 µM | UACC-62 > 100 µM | SW-620 > 100 µM | HT-29 > 100 µM | LOX IMVI 49.3 µM | HL-60 > 100 µM | COLO 205 > 100 µM | HCT-116 78.5 µM | OVCAR-5 > 100 µM | SK-MEL-28 > 100 µM | A549 > 100 µM | OVCAR-8 > 100 µM | HOP-62 > 100 µM | SK-MEL-2 > 100 µM | U-251 > 100 µM | IGROV-1 > 100 µM

Cc1c(Cl)ccc2c1NC(=O)C2(O)CC(=O)c1cccc2ccccc12 (stereo not drawn)
inactive: KM12 41.9 µM | NCI-H522 43.8 µM | UACC-62 36.7 µM | SW-620 38.9 µM | HT-29 43.4 µM | LOX IMVI 96.6 µM | HL-60 13.3 µM | COLO 205 > 100 µM | HCT-116 69.5 µM | OVCAR-5 > 100 µM | SK-MEL-28 > 100 µM | A549 > 100 µM | OVCAR-8 > 100 µM | HOP-62 > 100 µM | SK-MEL-2 > 100 µM | U-251 44.7 µM | IGROV-1 > 100 µM

C=CC1=C(C)c2cc3[nH]c(cc4nc(cc5[nH]c(cc1n2)c(C)c5CCC(=O)N(CC)CC)C(CCC(=O)N(CC)CC)=C4C)c(C)c3C=C
inactive: KM12 > 100 µM | NCI-H522 > 100 µM | UACC-62 > 100 µM | SW-620 > 100 µM | HT-29 > 100 µM | LOX IMVI > 100 µM | HL-60 > 100 µM | HCT-116 > 100 µM | OVCAR-5 74.5 µM | SK-MEL-28 > 100 µM | A549 > 100 µM | OVCAR-8 > 100 µM | HOP-62 > 100 µM | SK-MEL-2 > 100 µM | U-251 > 100 µM | IGROV-1 > 100 µM

CC1(C)C=N[N+]2(C)C3C=CC(CC3)C12 (stereo not drawn)
inactive: KM12 > 100 µM | NCI-H522 > 100 µM | UACC-62 > 100 µM | HT-29 > 100 µM | LOX IMVI > 100 µM | HL-60 > 100 µM | COLO 205 > 100 µM | HCT-116 > 100 µM | OVCAR-5 > 100 µM | SK-MEL-28 > 100 µM | A549 > 100 µM | OVCAR-8 > 100 µM | HOP-62 > 100 µM | SK-MEL-2 > 100 µM | U-251 > 100 µM | IGROV-1 > 100 µM
